Columns and labels:
YB-1 = YB-1 expression in six ovarian cancer cell lines; format: cell-based; conditions: 2.5 μM for 12 h; six different OC cell lines
Experimental: Out of six targets identified, we selected proteins whose thermal shift is above 5° in the presence of SU056 for further study of protein expression after treatment. […] To study the in vivo effects of SU056 treatment, we analyzed ID8 tumor xenograft samples via immunohistochemistry (IHC). […] To identify the broader effects of SU056 on YB-1 and its downstream protein/activity in different ovarian cancer cell lines, we selected six different cell lines and treated them with SU056 (2.5 μM) for 12 h. Cells were analyzed for YB-1 and CD44 expression and Multidrug resistance 1 (MDR1, ABC pump mediated efflux). […] Finally, we tested the time kinetics and dose-dependent effects of SU056 on YB-1 expression. OVCAR4, OVCAR8, and SKOV3 cells were treated with SU056 (1, 2.5, and 5 μM) for 3, 6, 12, and 24 h and YB-1 expression was measured using YB-1 ELISA. […]
Total YB-1 sandwich ELISA: Total YB-1 protein level was analyzed using PathScan® Total YB1 Sandwich ELISA Kit (Cell Signaling, #12543) by following the manufacturer's protocol.
(§1) FIGS. 4A-4E: SU056 inhibits YB-1. […] FIG. 4C) Respective OC cells were treated with 2.5 μM SU056 for 12 h and YB-1 & CD44 expression and multidrug resistance activity was measured as described in the ‘method’ section. The % inhibition was calculated and compared to the control for the respective cell line. […]

OVCAR8 OC tumors = assay: OVCAR8 xenograft combination study; format: in vivo, NOD-SCID mice; conditions: SU056 10 mg/kg daily, paclitaxel 5 mg/kg weekly, intraperitoneal, 28 days
Experimental: In a pharmacokinetics study in vivo, injection of 20 mg/kg SU056 led to a maximum serum concentration of 28.19 μg/mL with a T1/2 of ˜45 min. We then tested the synergism of paclitaxel and SU056 co-treatment in vivo in NOD-SCID mice implanted with OVCAR8 OC tumors as described above. Mice were given daily treatment of SU056 (10 mg/kg) and weekly treatment of paclitaxel (5 mg/kg) were administered intraperitoneally. […] This likely resulted from decreased paclitaxel efflux from OVCAR8 cells in the presence of SU056.
In vivo xenograft model and drug efficacy study: All animal experiments were reviewed and approved by the Animal Care and Use Committee of Stanford University, CA, USA. Luciferase tagged ID8 (2×10^6) or OVCAR8 (5×10^6) cells were implanted into the right flank of 6-7-week-old female C57BL/6 mice and NOD/SCID mice, respectively. Respective treatment began after tumors grew to 100-200 mm^3 diameters. The ID8 syngeneic mice model was treated with a vehicle (30% PEG-300 in saline), 20 mg/kg SU093, and 20 mg/kg SU056 intraperitoneally (IP) daily for 42 days. At the end of treatment, blood was collected from each mouse and analyzed for liver toxicity parameters, including Alanine Aminotransferase (ALT), Aspartate Aminotransferase (AST), and Alkaline Phosphatase (ALKP). […]

YB-1 and MDR1 expression = assay: Immunohistochemistry of ID8 tumor xenograft samples; format: in vivo, mice; conditions: SU056 20 mg/kg
Experimental: Out of six targets identified, we selected proteins whose thermal shift is above 5° in the presence of SU056 for further study of protein expression after treatment. […] To study the in vivo effects of SU056 treatment, we analyzed ID8 tumor xenograft samples via immunohistochemistry (IHC). […] To identify the broader effects of SU056 on YB-1 and its downstream protein/activity in different ovarian cancer cell lines, we selected six different cell lines and treated them with SU056 (2.5 μM) for 12 h. Cells were analyzed for YB-1 and CD44 expression and Multidrug resistance 1 (MDR1, ABC pump mediated efflux). […] Finally, we tested the time kinetics and dose-dependent effects of SU056 on YB-1 expression. OVCAR4, OVCAR8, and SKOV3 cells were treated with SU056 (1, 2.5, and 5 μM) for 3, 6, 12, and 24 h and YB-1 expression was measured using YB-1 ELISA. […] 5 μM treatment for 24 h inhibited YB-1 completely (100%) in all three OC cells (FIG. 4E).
Immunohistochemistry: Fixed tumors and organs were embedded in paraffin. Each block was cut in 5 μm sections and fixed on poly-L lysine-coated slides. […]
as §1

O=C1OCC2=C1C(c1cccc(F)c1)c1cc3c(cc1N2CCO)OCO3 (stereo not drawn) [SU056, 9-(3-fluorophenyl)-5-(2-hydroxyethyl)-6,9-dihydro-[1,3]dioxolo[4,5-g]furo[3,4-b]quinolin-8(5H)-one]
inhibition of YB-1 expression (YB-1): 28-56% | OC tumor growth (OVCAR8 OC tumors): significant reduction in OC tumor growth | YB-1 and MDR1 expression in tumors (IHC) (YB-1 and MDR1 expression): strongly inhibits YB-1 expression followed by downregulation of downstream MDR1

Reference: patent publication US20240016784A1, “Y BOX BINDING PROTEIN 1 INHIBITORS” (Oregon Health & Science University, priority 2020, published 2024)
